From patent publication US20090209633A1, “Treatment of Pain With Resiniferatoxin and Related Analogs” (priority 2006, published 2009)

Biological target: T1, rat TRPV1 (Rattus norvegicus, UniProt O35433)
T1 construct: expressed in transfected cells; host or cells: Xenopus laevis oocytes injected with TRPV1 cRNA
Test: Whole-cell currents in Xenopus laevis oocytes expressing TRPV1 (double-electrode voltage clamp)
Type: cell-based
Conditions: capsaicin 300 nM; for activation time (10-90% of the rising phase): holding −60 mV, protons pH 5.5, RTX 10 nM; for reversal potential of agonist-induced whole-cell current: ramp −80 to +80 mV in 1 s; for reversal/deactivation of current on agonist removal: −60 mV, pH 5.5, NADA 10 μM, washout >15 min for RTX
Method: Rat TRPV1 dcRNA. Cloned rat TRPV1 was obtained from the Julius Lab at the University of California San Francisco. TRPV1 cRNA was obtained using standard techniques known to those of skill in the art.
Electrophysiology. Whole-cell and single-channel currents were recorded from rat DRG neurons in culture and from Xenopus laevis oocytes injected with rat TRPV1 cRNA. Animals were cared for according to the standards of the National Institutes of Health (NIH). All animal use protocols were approved by Southern Illinois University School of Medicine Animal Care Committee.
Oocytes were obtained by an abdominal incision after anaesthetizing the frog by immersion in a 0.05% solution of 3-aminobenzoic acid ethyl ester (MS222). Animals were killed by a subcutaneous injection of a 2% solution of MS222 according to NIH guidelines. One day after separating the oocytes from the follicular layer, 50-70 nl TRPV1 cRNA was injected using a Drummond Nanoject (Drummond Scientific Co., Broomall, Pa., USA). Oocytes were used for recording from 3 days after the injection. Double-electrode voltage clamp was performed using a Warner amplifier (Warner Instruments, Hamden, Conn., USA). Data were digitized and stored on videotape or directly stored on the computer using a LabView interface (National Instruments, Austin, Tex., USA). Experiments were performed at 21-23° C. Oocytes were placed in a Perspex chamber superfused (5-10 ml min^−1) with Ca^2+-free Ringer solution containing (mM): NaCl 100, KCl 2.5 and Hepes 5; pH adjusted to 7.35 with NaOH. Current-voltage relationships were measured using 1-s voltage ramps from −80 to +80 mV.
This example tests the activation of whole-cell currents in oocytes by RTX. Whole-cell currents were recorded from oocytes heterologously expressing TRPV1. […] Agonist-induced currents are shown after subtracting the leak current in the absence of the agonist. […] In order to quantify this, we calculated the ratio of outward and inward currents. […] PKC activation increases sensitivity as well as TRPV1 translocation. […] (Szallasi et al. 1990b; Caterina et al. 1997; Marshall et al. 2003.)

T1 sequence (O35433 whole entry): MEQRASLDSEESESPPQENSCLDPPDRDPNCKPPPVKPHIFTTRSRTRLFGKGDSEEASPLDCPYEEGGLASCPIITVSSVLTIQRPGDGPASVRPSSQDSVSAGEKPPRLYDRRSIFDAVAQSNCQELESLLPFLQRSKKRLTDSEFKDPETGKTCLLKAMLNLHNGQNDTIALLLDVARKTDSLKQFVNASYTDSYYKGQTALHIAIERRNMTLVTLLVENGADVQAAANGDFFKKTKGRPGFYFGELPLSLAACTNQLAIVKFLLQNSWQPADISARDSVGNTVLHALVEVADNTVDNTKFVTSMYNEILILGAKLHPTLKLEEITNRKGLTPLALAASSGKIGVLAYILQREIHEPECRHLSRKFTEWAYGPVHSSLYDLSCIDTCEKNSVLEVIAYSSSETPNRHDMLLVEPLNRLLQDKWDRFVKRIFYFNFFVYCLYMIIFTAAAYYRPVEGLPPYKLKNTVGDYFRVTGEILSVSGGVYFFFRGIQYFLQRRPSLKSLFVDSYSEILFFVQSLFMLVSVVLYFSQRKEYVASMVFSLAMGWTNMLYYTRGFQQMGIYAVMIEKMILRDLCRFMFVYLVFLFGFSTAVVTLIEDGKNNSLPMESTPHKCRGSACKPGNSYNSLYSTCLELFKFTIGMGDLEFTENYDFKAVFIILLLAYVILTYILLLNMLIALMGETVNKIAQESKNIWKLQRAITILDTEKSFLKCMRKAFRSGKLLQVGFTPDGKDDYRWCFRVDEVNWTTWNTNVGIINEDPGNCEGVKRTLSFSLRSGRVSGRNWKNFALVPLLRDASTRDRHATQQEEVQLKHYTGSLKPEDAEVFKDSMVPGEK

Row | SMILES | activation time (10-90% of the rising phase) | reversal potential of agonist-induced whole-cell current (RTX 10 nM) | reversal/deactivation of current on agonist removal (RTX 10 nM) | ratio of outward and inward currents (rectification) (ramp −80 to +80 mV, RTX 10 nM)
1 | COc1cc(CNC(=O)CCCC/C=C/C(C)C)ccc1O [capsaicin] | 23.9±1.5 s | −12.3±0.42 mV | could be reversed readily | –
2 | C=C(C)[C@]12C[C@@H](C)[C@@]34O[C@](Cc5ccccc5)(O[C@@H]1[C@@H]3C=C(COC(=O)Cc1ccc(O)c(OC)c1)C[C@]1(O)C(=O)C(C)=C[C@@H]41)O2 [RTX, resiniferatoxin] | 61.4±4.4 s | −10.4±0.53 mV | did not deactivate even after a prolonged washout | 2.35±0.97
